Test results reported in paper PMC6471225 (Molecules, 2019).

How the values were obtained:
[1] = system: TBEV Hypr strain; type: cell-based, tick-borne encephalitis virus
[2] = system: TBEV Neudoerfl strain; type: cell-based, tick-borne encephalitis virus
[3] = system: TBEV Neudoerfl strain; assay: microbe, parasite or virus in culture; type: cell-based, tick-borne encephalitis virus; conditions: for IC50: Tick-borne encephalitis virus, A549, 72 h, read-out: half-maximum inhibitory concentration (IC50), reduction of viral titer by 50%
[4] = in vitro; conditions: human, cytotoxic concentration (CC50) required to reduce cell viability by 50%
[5] = system: TBEV Hypr strain; type: cell-based, tick-borne encephalitis virus; remark: listed apart in the source
[6] = system: TBEV E and prM proteins; type: cell-based, tick-borne encephalitis virus
[7] = system: A549 cells; conditions: human

Row | Structure (SMILES) | inhibition of TBEV infection, size and number of plaques [2] | CC50 [4] [µM] | reduction of number of plaques vs DMSO-treated infected cells [2] | cell viability after inhibitory treatment (protection from TBEV-induced CPE) [5] [%] | selectivity index (SI) CC50/IC50 [3] | IC50 [3] [µM] | other results
1 | CC(=O)O[C@H]1[C@H](C)O[C@H](OC[C@H]2O[C@@H](n3ccc(=O)[nH]c3=O)[C@@H]3OC(C)(C)O[C@@H]32)C[C@@H]1O[Si](C)(C)C(C)(C)C [Compound 1] | minor or no antiviral effect | 74 | – | – | – | – | effect on viral growth [1]: did not affect viral growth; effect on viral growth [3]: did not affect viral growth
2 | CC(=O)O[C@H]1[C@H](C)O[C@H](OC[C@H]2O[C@@H](n3ccc(=O)n(C(=O)c4ccccc4)c3=O)[C@@H]3OC(C)(C)O[C@@H]32)C[C@@H]1O[Si](C)(C)C(C)(C)C [Compound 2] | nearly a complete inhibition of TBEV infection | 141 | 98% | ~99 | 26.6 | 5.3 | plaque formation [2]: no plaques were detected; TBEV titer [3]: undetectable levels
3 | CC1(C)OC2C(COC3CC(OCc4ccccc4)C(OCc4ccccc4)C(COCc4ccccc4)O3)OC(n3ccc(=O)[nH]c3=O)C2O1 (stereo not shown) [Compound 3] | minor or no antiviral effect | 97 | – | – | – | – | effect on viral growth [1]: did not affect viral growth; effect on viral growth [3]: did not affect viral growth
4 | CC1(C)OC2C(COC3CC(OCc4ccccc4)C(OCc4ccccc4)C(COCc4ccccc4)O3)OC(n3ccc(=O)n(C(=O)c4ccccc4)c3=O)C2O1 (stereo not shown) [Compound 4] | nearly a complete inhibition of TBEV infection | 119 | 90% | ~99 | 85 | 1.4 | synthesis of E and prM proteins [6]: completely inhibited the synthesis of both proteins; plaque formation [2]: no plaques were detected; reduction of the viral titer vs infected mock-treated cells [3]: 10^4 fold; virus detection in supernatant [3]: no virus was detected
5 | CC1(C)OC2C(COC3CC(OCc4ccccc4)C(OCc4ccccc4)C(CO[Si](C)(C)C(C)(C)C)O3)OC(n3ccc(=O)[nH]c3=O)C2O1 (stereo not shown) [Compound 5] | – | 79 | – | – | – | – | –
6 | CC(=O)OCC1OC(OCC2OC(n3ccc(=O)[nH]c3=O)C3OC(C)(C)OC23)CC(OC(C)=O)C1OC(C)=O (stereo not shown) [Compound 6] | – | 196 | – | – | – | – | –
7 | CC(=O)OCC1OC(OCC2OC(n3ccc(=O)[nH]c3=O)C3OC(C)(C)OC23)CC(OC(C)=O)C1OC(C)=O (stereo not shown) [Compound 7] | – | – | – | – | – | – | CC50 [7]: 223 µM
8 | CC(=O)OCC1OC(OCC2OC(n3ccc(=O)n(Cc4ccccc4)c3=O)C3OC(C)(C)OC23)CC(OC(C)=O)C1OC(C)=O (stereo not shown) [Compound 8] | – | 225 | – | – | – | – | –
9 | O=c1ccn(C2OC(COC3CC(O)C(O)C(CO)O3)C(O)C2O)c(=O)[nH]1 (stereo not shown) [Compound 9] | – | 238 | – | – | – | – | –
10 | CC1(C)OC2C(COC3CC(OCc4ccccc4)C(OCc4ccccc4)C(CO[Si](C)(C)C(C)(C)C)O3)OC(n3ccc(=O)n(C(=O)c4ccccc4)c3=O)C2O1 (stereo not shown) [Compound 10] | nearly a complete inhibition of TBEV infection | 121 | 82–96% | 90 | 18.6 | 6.5 | –
11 | CC1(C)OC2C(COC3CC(OCc4ccccc4)C(OCc4ccccc4)C(CO)O3)OC(n3ccc(=O)n(C(=O)c4ccccc4)c3=O)C2O1 (stereo not shown) [Compound 11] | nearly a complete inhibition of TBEV infection | 141 | 82–96% | 81 | 13.8 | 10.2 | –
